ChEMBL document CHEMBL1201862, “PubChem BioAssay data set” (2004)
Activity calls are given as the source filed them.

What was measured:
[1] = target: T1, Kappa-type opioid receptor (Homo sapiens, UniProt P41145); experiment: SAR analysis of small molecule agonists of the kappa opioid receptor via a luminescent beta-arrestin assay - Set 3. [Related pubchem assays (depositor defined):AID1777, AID1785, AID1786, AID1966, AID2133, AID2136, AID2284, AID2500]; assay type: functional
[2] = target: Delta-type opioid receptor (Homo sapiens, UniProt P41143); experiment: SAR Analysis of Agonists of the DOR Receptor using an Image-Based Assay - Set 3. [Related pubchem assays (depositor defined):AID1777, AID1786]; assay type: functional
Delta-type opioid receptor, sequence (P41143 whole entry): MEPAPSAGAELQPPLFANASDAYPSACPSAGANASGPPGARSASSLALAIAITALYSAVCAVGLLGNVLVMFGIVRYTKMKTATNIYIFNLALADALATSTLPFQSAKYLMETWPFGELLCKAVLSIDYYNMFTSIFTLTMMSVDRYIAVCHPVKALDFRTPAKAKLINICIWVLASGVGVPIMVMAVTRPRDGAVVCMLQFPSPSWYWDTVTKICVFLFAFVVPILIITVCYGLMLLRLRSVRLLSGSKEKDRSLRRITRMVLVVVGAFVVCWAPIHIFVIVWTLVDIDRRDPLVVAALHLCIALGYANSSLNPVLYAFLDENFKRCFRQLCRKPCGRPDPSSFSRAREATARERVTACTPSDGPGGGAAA

Mu-type opioid receptor = Mu-type opioid receptor (Homo sapiens, UniProt P35372); experiment: SAR Analysis of Agonists of the MOR Receptor using an Image-Based Assay - Set 3. [Related pubchem assays (depositor defined):AID1777, AID1785, AID1786, AID1966, AID2133, AID2136, AID2284, AID2285, AID2352]; assay type: functional
Mu-type opioid receptor, sequence (P35372 whole entry): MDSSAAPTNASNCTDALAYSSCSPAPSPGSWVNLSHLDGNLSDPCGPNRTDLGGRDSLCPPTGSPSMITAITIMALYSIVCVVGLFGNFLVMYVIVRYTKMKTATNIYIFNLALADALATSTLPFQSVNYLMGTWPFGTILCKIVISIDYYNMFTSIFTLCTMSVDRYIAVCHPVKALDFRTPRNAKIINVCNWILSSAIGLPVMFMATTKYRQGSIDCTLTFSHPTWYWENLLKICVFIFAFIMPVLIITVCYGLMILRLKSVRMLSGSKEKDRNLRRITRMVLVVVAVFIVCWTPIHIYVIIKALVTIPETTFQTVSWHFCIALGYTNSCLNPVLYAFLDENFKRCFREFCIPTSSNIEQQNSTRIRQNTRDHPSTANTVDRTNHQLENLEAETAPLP

[3] = target: T1, Kappa-type opioid receptor; experiment: KOR agonist analogs, arrestin-GFP redistribution, SAR follow-up, imaging, image-based, set 3 (AID 488833); assay type: functional
[4] = target: T2, Tyrosine-protein phosphatase non-receptor type 22 (Homo sapiens, UniProt Q9Y2R2); experiment: SAR LYP1 Fluorescent Assay using OMFP substrate for In Vitro dose response studies - Set 2. [Related pubchem assays (depositor defined):AID1779, AID1784, AID2140, AID449726, AID488869]; assay type: functional
T2 sequence (Q9Y2R2 whole entry): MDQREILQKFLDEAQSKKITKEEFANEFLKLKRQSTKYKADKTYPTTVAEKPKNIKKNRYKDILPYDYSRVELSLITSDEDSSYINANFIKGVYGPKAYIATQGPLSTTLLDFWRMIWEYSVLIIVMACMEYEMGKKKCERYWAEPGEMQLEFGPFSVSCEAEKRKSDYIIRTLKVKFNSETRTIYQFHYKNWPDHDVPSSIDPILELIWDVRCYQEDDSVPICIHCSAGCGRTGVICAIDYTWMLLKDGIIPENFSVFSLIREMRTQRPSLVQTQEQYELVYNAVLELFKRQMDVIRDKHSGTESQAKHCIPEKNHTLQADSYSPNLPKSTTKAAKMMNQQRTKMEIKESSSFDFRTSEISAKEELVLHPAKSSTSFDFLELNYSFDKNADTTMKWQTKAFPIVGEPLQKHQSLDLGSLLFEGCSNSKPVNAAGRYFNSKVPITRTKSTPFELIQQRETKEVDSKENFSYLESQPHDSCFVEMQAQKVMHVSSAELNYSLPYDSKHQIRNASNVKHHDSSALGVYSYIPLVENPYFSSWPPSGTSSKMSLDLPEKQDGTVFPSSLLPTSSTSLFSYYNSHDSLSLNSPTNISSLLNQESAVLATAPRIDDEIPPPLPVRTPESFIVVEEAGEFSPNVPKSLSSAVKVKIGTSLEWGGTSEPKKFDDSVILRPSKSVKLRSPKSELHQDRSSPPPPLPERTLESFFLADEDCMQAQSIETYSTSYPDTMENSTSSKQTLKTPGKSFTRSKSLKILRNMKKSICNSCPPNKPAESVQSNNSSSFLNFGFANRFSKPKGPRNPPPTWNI

[5] = target: T2, Tyrosine-protein phosphatase non-receptor type 22; experiment: SAR LYP1 Fluorescent Assay using OMFP substrate for In Vitro dose response studies - Set 3. [Related pubchem assays (depositor defined):AID1779, AID1784, AID2140, AID2686]; assay type: functional
[6] = target: T3, Tyrosine-protein phosphatase non-receptor type 7 (Homo sapiens, UniProt P35236); experiment: HePTP (PTPN7) phosphatase inhibitor potency, SAR follow-up, biochemical, set 2 (AID 449736); assay type: functional
T3 sequence (P35236 whole entry): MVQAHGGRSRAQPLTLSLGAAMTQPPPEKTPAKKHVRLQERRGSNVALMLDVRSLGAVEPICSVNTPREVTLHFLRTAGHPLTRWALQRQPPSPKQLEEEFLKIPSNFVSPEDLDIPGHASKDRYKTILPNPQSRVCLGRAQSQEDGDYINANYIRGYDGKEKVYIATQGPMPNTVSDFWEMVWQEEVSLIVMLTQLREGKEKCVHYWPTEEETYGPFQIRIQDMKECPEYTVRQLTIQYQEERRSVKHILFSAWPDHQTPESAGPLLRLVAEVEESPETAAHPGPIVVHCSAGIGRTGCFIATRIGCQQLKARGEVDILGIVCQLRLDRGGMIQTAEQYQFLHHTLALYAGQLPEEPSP

[7] = target: T2, Tyrosine-protein phosphatase non-receptor type 22; experiment: LYP (PTPN22) phosphatase inhibitor potency, SAR follow-up, biochemical, pCAP fluorogenic substrate, fluorescence, set 3 (AID 449727); assay type: functional
[8] = target: T2, Tyrosine-protein phosphatase non-receptor type 22; experiment: SAR LYP1 Fluorescent Assay using pCAP substrate for In Vitro dose response studies - Set 2. [Related pubchem assays (depositor defined):AID1779, AID1784, AID2135, AID449727]; assay type: functional
[9] = target: Dual specificity tyrosine-phosphorylation-regulated kinase 1A (Rattus norvegicus, UniProt Q63470); assay type: biochemical, Homo sapiens
[10] = target: Intestinal-type alkaline phosphatase (Homo sapiens, UniProt P09923); experiment: inhibition of human intestinal alkaline phosphatase – biochemical, dose response (AID 488876); assay type: functional
Intestinal-type alkaline phosphatase (Homo sapiens, UniProt P09923), sequence (P09923 whole entry): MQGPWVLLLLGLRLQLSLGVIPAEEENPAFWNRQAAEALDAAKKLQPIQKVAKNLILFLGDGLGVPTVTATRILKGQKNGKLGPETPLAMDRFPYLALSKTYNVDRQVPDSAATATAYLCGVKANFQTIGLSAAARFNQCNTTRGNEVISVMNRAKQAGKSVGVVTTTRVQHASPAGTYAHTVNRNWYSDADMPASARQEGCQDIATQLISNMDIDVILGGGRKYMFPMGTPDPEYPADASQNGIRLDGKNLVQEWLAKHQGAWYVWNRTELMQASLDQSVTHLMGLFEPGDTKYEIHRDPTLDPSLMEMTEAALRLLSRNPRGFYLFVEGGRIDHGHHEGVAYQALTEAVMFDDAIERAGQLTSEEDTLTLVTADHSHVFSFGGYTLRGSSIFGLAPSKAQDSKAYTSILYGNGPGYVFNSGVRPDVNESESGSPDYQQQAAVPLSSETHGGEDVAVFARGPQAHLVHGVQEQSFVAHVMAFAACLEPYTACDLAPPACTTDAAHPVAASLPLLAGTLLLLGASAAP

[11] = target: T4, Alkaline phosphatase, tissue-nonspecific isozyme (Homo sapiens, UniProt P05186); experiment: TNAP enzyme inhibition by screening hits, dose response, selectivity assay for mouse IAP inhibitor project, biochemical, human TNAP, uHTS hits (AID 488906); assay type: functional
T4 sequence (P05186 whole entry): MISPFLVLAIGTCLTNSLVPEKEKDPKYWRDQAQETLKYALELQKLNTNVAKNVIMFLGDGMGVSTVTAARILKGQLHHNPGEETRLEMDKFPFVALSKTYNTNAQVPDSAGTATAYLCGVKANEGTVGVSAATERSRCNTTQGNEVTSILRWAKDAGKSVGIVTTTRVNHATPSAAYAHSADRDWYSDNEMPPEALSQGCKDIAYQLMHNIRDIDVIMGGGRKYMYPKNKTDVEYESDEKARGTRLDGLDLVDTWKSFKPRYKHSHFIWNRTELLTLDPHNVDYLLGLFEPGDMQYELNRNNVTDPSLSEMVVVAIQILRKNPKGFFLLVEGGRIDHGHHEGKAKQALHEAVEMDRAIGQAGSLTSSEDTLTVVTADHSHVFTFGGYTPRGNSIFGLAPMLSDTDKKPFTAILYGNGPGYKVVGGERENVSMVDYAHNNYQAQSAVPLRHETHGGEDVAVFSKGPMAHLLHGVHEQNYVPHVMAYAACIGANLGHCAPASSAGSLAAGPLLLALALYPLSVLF

[12] = target: Intestinal-type alkaline phosphatase (Mus musculus, UniProt P24822); experiment: PubChem AID 488785; assay type: functional
Intestinal-type alkaline phosphatase (Mus musculus, UniProt P24822), sequence (P24822 whole entry): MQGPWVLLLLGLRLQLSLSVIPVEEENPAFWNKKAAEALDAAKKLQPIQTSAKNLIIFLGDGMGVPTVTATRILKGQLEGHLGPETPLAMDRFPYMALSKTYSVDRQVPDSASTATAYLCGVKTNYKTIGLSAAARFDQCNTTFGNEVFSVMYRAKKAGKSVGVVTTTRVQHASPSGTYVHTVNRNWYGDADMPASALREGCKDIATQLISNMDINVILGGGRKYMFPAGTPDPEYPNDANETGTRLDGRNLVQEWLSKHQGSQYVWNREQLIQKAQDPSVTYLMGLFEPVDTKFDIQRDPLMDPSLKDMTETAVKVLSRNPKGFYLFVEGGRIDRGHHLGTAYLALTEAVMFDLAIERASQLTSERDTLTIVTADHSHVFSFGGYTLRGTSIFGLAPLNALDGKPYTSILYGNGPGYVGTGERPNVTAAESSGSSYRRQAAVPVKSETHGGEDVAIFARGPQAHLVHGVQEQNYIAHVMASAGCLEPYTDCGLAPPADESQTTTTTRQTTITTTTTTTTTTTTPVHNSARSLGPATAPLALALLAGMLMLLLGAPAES

Insulin-degrading enzyme = target: T5, Insulin-degrading enzyme (Homo sapiens, UniProt P14735); experiment: Dose Response: Fluorescence polarization-based cell-based high throughput dose response assay for inhibitors of insulin-degrading enzyme (IDE). [Related pubchem assays: 434962 (Primary screen (IDE inhibitors in singlicate)), 449730 (Counterscreen (Cytotoxicity in triplicate)), 435028 (Confirmation (IDE inhibitors in triplicate)), 434984 (Summary …; assay type: functional
T5 sequence (P14735 whole entry): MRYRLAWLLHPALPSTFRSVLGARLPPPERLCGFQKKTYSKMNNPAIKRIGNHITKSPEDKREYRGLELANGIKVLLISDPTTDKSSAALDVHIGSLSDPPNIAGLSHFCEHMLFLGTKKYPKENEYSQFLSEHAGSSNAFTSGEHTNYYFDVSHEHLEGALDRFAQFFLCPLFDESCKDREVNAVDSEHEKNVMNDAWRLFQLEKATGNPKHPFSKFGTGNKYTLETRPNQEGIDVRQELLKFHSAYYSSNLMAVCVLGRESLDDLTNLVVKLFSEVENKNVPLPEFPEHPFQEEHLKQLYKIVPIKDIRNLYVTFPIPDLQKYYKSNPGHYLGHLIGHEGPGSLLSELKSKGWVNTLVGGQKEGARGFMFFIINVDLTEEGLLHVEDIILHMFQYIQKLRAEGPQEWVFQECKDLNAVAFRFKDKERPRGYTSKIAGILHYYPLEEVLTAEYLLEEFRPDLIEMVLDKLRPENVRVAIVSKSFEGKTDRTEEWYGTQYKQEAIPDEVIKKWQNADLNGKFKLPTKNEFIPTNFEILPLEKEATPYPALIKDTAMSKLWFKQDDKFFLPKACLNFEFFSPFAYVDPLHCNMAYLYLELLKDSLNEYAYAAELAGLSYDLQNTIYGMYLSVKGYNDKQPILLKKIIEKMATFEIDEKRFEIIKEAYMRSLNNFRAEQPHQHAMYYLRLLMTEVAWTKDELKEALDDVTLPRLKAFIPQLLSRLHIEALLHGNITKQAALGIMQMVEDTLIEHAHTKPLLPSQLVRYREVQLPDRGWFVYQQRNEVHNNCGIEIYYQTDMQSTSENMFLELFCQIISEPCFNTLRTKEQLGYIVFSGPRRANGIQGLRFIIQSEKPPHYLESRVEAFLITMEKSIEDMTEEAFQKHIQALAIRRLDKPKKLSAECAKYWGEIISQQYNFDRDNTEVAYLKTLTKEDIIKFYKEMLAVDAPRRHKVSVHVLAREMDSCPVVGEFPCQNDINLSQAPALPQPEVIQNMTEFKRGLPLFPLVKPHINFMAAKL

[13] = Counterscreen for IDE inhibitors: Luminescence-based cell-based high throughput dose response assay to identify compounds that are cytotoxic to HEK cells. [Related pubchem assays: 434962 (Primary screen (IDE inhibitors in singlicate)), 449730 (Counterscreen (Cytotoxicity in triplicate)), 435028 (Confirmation (IDE inhibitors in triplicate)) …; assay type: functional; conditions: HEK293

T1 sequence (P41145 whole entry): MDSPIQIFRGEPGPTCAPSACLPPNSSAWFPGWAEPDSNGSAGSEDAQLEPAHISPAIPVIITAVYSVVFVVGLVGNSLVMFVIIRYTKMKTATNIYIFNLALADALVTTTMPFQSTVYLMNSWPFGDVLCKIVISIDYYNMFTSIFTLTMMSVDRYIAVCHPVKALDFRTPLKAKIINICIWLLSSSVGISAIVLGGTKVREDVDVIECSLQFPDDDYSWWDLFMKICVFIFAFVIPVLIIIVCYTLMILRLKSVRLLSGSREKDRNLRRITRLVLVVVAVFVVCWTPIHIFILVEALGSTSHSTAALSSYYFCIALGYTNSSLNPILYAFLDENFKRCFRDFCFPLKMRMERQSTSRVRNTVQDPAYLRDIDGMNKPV

## Cc1c(CSc2nnc(-c3ccccn3)n2Cc2ccco2)cccc1[N+](=O)[O-]
[1]
  EC50: 8.21 µM (active)
[2]
  EC50: > 64 µM (inactive)
Mu-type opioid receptor
  EC50: > 32 µM (inactive)
[3]
  EC50: 12.2 µM (inactive)

## NC1=NC(=O)/C(=C/c2ccc(OCC(=O)O)cc2)S1
[4]
  IC50: > 100 µM (inactive)
[5]
  IC50: > 100 µM (inactive)
[6]
  IC50: > 100 µM (inactive)
[7]
  IC50: 44.8 µM (active)
[8]
  IC50: 55 µM (active)

## COc1cc(/C=N/N2C(=O)CSC2=S)ccc1O
[9]
  AC50: 9.55 µM (active)
[10]
  IC50: 21.3 µM (active)
[11]
  IC50: > 100 µM (inactive)
[12]
  IC50: 2.2 µM (active)
Insulin-degrading enzyme
  IC50: > 6.22 µM (active)
[13]
  IC50: > 55.7 µM (not active)
